Data: PubChem BioAssay (NCI)
Several values for one entry are separate records, joined by “and”; a condition that tells them apart may be missing. Identical values can stand only once.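 Exposure lasted 48 hours, with cells grown in 96-well plates and compounds tested at five concentrations. GI50 is the concentration that inhibits growth by half. Definition used: TGI = concentration required for complete inhibition of growth.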

How the values were obtained:
Experiment in all cases: NCI anticancer screen, dose series, 48 h
BT-549 breast = tested on: BT-549 breast
HCT-116 colon = tested on: HCT-116 colon
HCT-15 colon = tested on: HCT-15 colon
M14 melanoma = tested on: M14 melanoma
MALME-3M melanoma = tested on: MALME-3M melanoma
MDA-MB-435 = tested on: MDA-MB-435
SF-268 CNS = tested on: SF-268 CNS
T-47D breast = tested on: T-47D breast

| Structure (SMILES) | GI50 (BT-549 breast) | TGI (BT-549 breast) | GI50 (HCT-116 colon) | TGI (HCT-116 colon) | GI50 (HCT-15 colon) | TGI (HCT-15 colon) | GI50 (M14 melanoma) | TGI (M14 melanoma) | GI50 (MALME-3M melanoma) | TGI (MALME-3M melanoma) | GI50 (MDA-MB-435) | TGI (MDA-MB-435) | GI50 (SF-268 CNS) | TGI (SF-268 CNS) | GI50 (T-47D breast) | TGI (T-47D breast) |
| --- | --- | --- | --- | --- | --- | --- | --- | --- | --- | --- | --- | --- | --- | --- | --- | --- |
| Cc1cc(N(CCNc2ccnc3cc(Cl)ccc23)Cc2ccc3c(c2)OCO3)nc(N2CCN(C)CC2)n1 | 2.17 µM | 5.54 µM | 1.41 µM | 4.7 µM | 1.55 µM | 3.82 µM | 1.89 µM | 3.55 µM | 1.77 µM | 3.36 µM | 1.61 µM | 3.07 µM | 2.42 µM | 7.89 µM | 2.05 µM | 4.64 µM |
| CC(C)(C)OC(=O)NCC(C#N)CNC(=O)OC(C)(C)C | – | > 100 µM | – | > 100 µM | – | > 100 µM | – | > 100 µM | – | > 100 µM | – | > 100 µM | – | > 100 µM | – | > 100 µM |
| COc1cc(/C=C2\CN(C)CC3=C2Nc2nc(SC)[nH]c(=O)c2C3c2cc(OC)c(OC)c(OC)c2)cc(OC)c1OC (stereo unspecified) | 2.98 µM | 8.12 µM | 1.66 µM | 3.17 µM | 2.07 µM | 4.79 µM | 2.98 µM | 9.44 µM | 2.82 µM | 9.44 µM | 2.51 µM | 8.46 µM | 1.66 µM | 3.4 µM | 3.69 µM | 22.6 µM |
| Cc1cc2c(cc1C)NC1=C(N2)OC(c2c[nH]c3ccc(COc4ccccc4)cc23)C1=O (stereo unspecified) | – | > 100 µM | – | > 100 µM | – | > 100 µM | – | > 100 µM | – | > 100 µM | – | > 100 µM | – | > 100 µM | – | > 100 µM |
| CCOC(=O)c1c(NC(=O)c2ccc(C(C)C)cc2)sc2c(CN(C)C)c(O)ccc12 | 2.18 µM | 5.35 µM | 1.78 µM | 3.36 µM | 1.17 µM | 2.74 µM | 1.77 µM | 3.48 µM | 1.72 µM | 3.22 µM | 1.77 µM | 3.37 µM | 1.98 µM | 4.06 µM | 2.01 µM | 5.17 µM |
| Cn1cc(C2=C(c3cn(C)c4ccc(N)cc34)C(=O)NC2=O)c2ccccc21 | 7.12 µM | > 25 µM | 6.65 µM | > 25 µM | 4.52 µM | > 25 µM | 13.9 µM | > 25 µM | > 25 µM | > 25 µM | 0.729 µM | > 25 µM | 15.6 µM | > 25 µM | 18.8 µM | > 25 µM |
| N/C(=N\OC(=O)c1ccccc1)C(C(=O)NOC(=O)c1ccccc1)C1CCCCC1 (stereo unspecified) | 3.98 µM | 15.1 µM | 3.45 µM | 13 µM | 9.65 µM | 23.5 µM | 10.9 µM | 23 µM | 10.1 µM | 27.5 µM | 2.21 µM | 5.59 µM | 2.39 µM | 6.7 µM | 7.57 µM | 28.2 µM |
| CCN(c1ccc(CO)c(Cl)c1)C(C)c1ccc(F)cc1 (stereo unspecified) | 15.5 µM | 29.6 µM | 4.22 µM | 17.4 µM | 13.7 µM | 28.9 µM | 17.6 µM | 33.8 µM | 16.7 µM | 31.8 µM | 17.3 µM | 32.5 µM | 17 µM | 31.9 µM | 4.22 µM | 18.2 µM |
| COc1cc(-c2oc3ccccc3c(=O)c2O)cc(OC)c1OC | – | > 100 µM | – | > 100 µM | – | > 100 µM | – | > 100 µM | – | > 100 µM | – | > 100 µM | – | > 100 µM | – | > 100 µM |
| CN1C2CC(C#N)C1C=CC2=O (stereo unspecified) | 38.7 µM and > 100 µM | 75.1 µM and > 100 µM | 13.4 µM and 43.8 µM | 27.2 µM and > 100 µM | 13.6 µM and > 100 µM | 40.7 µM and > 100 µM | 15.9 µM and > 100 µM | 30.7 µM and > 100 µM | 14.8 µM and 96.6 µM | 31.4 µM and > 100 µM | 16.9 µM and 89.2 µM | 36.7 µM and > 100 µM | 27.2 µM and > 100 µM | > 100 µM | 17.5 µM and > 100 µM | 45.1 µM and > 100 µM |
| O=C(O)c1cc[c]([Hg][S]c2ncnc3nc[nH]c23)cc1 | 8.12 µM | 21.6 µM | 4.89 µM | 22.3 µM | 11.2 µM | 27.2 µM | 2.18 µM | 14 µM | 3.35 µM | 17.9 µM | 3.81 µM | 16.8 µM | 5.15 µM | 19 µM | 4.52 µM | 36.7 µM |
| COc1ccc(-c2cc(-c3ccc(Cl)cc3)c(C#N)c(=O)n2CCCCC(=O)Nc2ccccc2N)cc1 | 4.71 µM | 31.9 µM | 3.25 µM | 20.7 µM | 3.03 µM | 13 µM | 2.58 µM | 8.14 µM | 4.7 µM | 31.1 µM | 5.8 µM | > 100 µM | 22.1 µM | > 100 µM | 4.44 µM | > 100 µM |
| COc1ccc(C2SC(N)=Nc3c2c(C)nn3C(=O)c2ccc(Cl)cc2)cc1OC (stereo unspecified) | – | > 10 µM | – | > 10 µM | – | > 10 µM | – | > 10 µM | – | > 10 µM | – | > 10 µM | – | > 10 µM | – | > 10 µM |
